Reference: US20080009418A1, “Selective Inhibitors” (Alchemia LTD., priority 2004, published 2008)

How the values were obtained:
Human Melanocortin (MC4) = biological target: T1, Human Melanocortin (MC4) (Homo sapiens, UniProt P32245); test: Radioligand binding, human melanocortin MC4 membranes, FlashPlate, [125I]-NDP-αMSH; details: compound at 10 μM; [125I]-NDP-αMSH
T1 construct: purchased Perkin Elmer Biosignal
Procedure, shortened: (§1)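 Cloned human receptor membranes were coated onto FlashPlate wells and incubated with radioligand and compound (added from a 0.5 mM DMSO daughter plate) for 1 hour at room temperature in the dark. Scintillation counting gave percent inhibition, with DMSO defining total and reference ligand defining non-specific binding.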

[1] = biological target: T2, Human melanin-concentrating hormone (MCH1) (Homo sapiens, UniProt Q99705); test: Radioligand binding, human melanin-concentrating hormone MCH1 membranes, FlashPlate, [125I]-S36057; details: compound at 10 μM; [125I]-S36057
T2 construct: purchased Perkin Elmer Biosignal
T2 sequence (Q99705 whole entry): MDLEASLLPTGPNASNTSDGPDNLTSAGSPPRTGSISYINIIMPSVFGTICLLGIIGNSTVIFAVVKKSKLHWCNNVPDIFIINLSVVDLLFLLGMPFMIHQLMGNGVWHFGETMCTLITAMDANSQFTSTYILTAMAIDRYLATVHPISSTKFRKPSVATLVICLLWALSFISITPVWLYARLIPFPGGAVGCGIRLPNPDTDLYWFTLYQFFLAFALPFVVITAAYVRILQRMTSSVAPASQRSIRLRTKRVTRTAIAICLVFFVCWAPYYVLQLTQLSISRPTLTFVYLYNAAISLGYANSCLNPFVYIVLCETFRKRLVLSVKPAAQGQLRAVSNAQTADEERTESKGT
Procedure, shortened: as §1

Human μ-opioid (MOP) = biological target: T3, Human μ-opioid (MOP) (Homo sapiens, UniProt P35372); test: Radioligand binding, human μ-opioid (MOP) membranes, FlashPlate, [3H]-Naloxone; details: compound at 10 μM; [3H]-Naloxone
T3 construct: purchased Perkin Elmer Biosignal
T3 sequence (P35372 whole entry): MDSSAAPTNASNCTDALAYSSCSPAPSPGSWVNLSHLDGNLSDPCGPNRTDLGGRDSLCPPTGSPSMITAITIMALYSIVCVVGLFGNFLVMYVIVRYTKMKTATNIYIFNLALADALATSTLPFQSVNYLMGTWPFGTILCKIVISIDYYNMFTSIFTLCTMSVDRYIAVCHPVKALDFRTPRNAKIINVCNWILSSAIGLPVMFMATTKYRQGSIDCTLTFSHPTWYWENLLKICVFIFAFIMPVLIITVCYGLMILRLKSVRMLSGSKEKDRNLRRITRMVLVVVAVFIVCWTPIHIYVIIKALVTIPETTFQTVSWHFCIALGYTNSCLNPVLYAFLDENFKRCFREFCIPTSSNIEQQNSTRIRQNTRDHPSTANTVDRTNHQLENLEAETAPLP
Procedure, shortened: as §1

Human melanocortin (MC5) = biological target: T4, Human melanocortin (MC5) (Homo sapiens, UniProt P33032); test: Radioligand binding, human melanocortin MC5 membranes, FlashPlate, [125I]-NDP-αMSH; details: compound at 10 μM, [125I]-NDP-αMSH
T4 construct: purchased Perkin Elmer Biosignal
T4 sequence (P33032 whole entry): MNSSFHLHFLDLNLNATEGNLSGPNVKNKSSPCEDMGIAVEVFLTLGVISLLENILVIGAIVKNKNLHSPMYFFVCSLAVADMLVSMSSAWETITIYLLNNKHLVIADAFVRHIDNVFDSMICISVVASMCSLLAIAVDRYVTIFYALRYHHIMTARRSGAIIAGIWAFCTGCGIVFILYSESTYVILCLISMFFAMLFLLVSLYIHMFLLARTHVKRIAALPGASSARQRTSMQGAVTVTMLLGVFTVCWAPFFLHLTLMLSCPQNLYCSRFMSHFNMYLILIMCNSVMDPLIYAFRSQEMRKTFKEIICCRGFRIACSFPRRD
Procedure, shortened: as §1

Mouse urotensin (mUR2) = biological target: T5, Mouse urotensin (mUR2) (Mus musculus, UniProt Q8VIH9); test: Radioligand binding, mouse urotensin mUR2 membranes, FlashPlate, [125I]-Urotensin II; details: compound at 10 μM; [125I]-Urotensin II
T5 construct: purchased Perkin Elmer Biosignal
T5 sequence (Q8VIH9 1-385): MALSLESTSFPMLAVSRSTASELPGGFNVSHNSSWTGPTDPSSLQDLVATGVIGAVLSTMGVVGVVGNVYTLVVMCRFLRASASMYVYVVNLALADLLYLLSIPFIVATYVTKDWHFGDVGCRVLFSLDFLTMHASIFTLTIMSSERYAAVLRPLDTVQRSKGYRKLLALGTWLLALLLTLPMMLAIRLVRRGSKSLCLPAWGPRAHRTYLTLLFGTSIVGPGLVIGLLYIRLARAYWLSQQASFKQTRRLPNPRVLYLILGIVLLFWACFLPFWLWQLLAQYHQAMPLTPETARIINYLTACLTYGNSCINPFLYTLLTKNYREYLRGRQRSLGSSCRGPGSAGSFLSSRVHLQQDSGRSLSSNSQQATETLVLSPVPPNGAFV
Procedure, shortened: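 Cloned mouse urotensin (mUR2) receptor membranes from Perkin Elmer Biosignal were immobilized in FlashPlate microplates using a proprietary coating. Each well got 19.5 μl buffer, then 0.5 μl of DMSO, reference ligand, or compound. Adding 5 μl of [125I]-Urotensin II, diluted to 5× final concentration in binding buffer, started binding. Plates were sealed with TopSeal-A and incubated 1 hour at room temperature in the dark. Wells were counted for 30 seconds each on a TopCount after a 60-second delay, and percentage inhibition was calculated.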

Human Melanocortin (MC3) = biological target: T6, Human Melanocortin (MC3) (Homo sapiens, UniProt P41968); test: Radioligand binding, human melanocortin MC3 membranes, FlashPlate, [125I]-NDP-αMSH; details: compound at 10 μM; [125I]-NDP-αMSH
T6 construct: purchased Perkin Elmer Biosignal
T6 sequence (P41968 whole entry): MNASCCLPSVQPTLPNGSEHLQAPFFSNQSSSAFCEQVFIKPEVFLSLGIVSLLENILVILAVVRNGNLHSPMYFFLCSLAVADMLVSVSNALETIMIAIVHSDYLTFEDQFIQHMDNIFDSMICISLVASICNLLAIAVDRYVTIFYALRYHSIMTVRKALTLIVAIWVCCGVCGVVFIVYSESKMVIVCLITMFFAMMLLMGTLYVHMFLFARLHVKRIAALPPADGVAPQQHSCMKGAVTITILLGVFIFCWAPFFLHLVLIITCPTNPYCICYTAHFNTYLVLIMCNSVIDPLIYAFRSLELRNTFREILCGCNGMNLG
Procedure, shortened: as §1

[2] = biological target: T7, Human neuropeptide Y (NPY-Y1) (Homo sapiens, UniProt P25929); test: Radioligand binding, human neuropeptide Y NPY-Y1 membranes, FlashPlate, [125I]-PYY; details: compound at 10 μM; [125I]-PYY
T7 construct: purchased Perkin Elmer Biosignal
T7 sequence (P25929 1-384): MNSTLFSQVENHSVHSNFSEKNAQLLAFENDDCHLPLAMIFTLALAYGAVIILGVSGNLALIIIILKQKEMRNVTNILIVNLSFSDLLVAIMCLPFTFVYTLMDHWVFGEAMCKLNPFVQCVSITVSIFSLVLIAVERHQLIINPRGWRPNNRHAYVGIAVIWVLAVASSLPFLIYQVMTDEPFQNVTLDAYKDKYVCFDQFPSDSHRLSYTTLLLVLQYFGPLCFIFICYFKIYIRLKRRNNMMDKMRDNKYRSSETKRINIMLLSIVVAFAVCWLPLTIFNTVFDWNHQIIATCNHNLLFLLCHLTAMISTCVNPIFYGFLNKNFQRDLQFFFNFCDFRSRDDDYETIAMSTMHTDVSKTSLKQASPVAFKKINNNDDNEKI
Procedure, shortened: as §1

Human opioid (ORL1) = biological target: T8, Human opioid (ORL1) (Homo sapiens, UniProt P41146); test: Radioligand binding, human opioid ORL1 membranes, FlashPlate, [125I]-Nociceptin; details: compound at 10 μM; [125I]-Nociceptin
T8 construct: purchased Perkin Elmer Biosignal
T8 sequence (P41146 whole entry): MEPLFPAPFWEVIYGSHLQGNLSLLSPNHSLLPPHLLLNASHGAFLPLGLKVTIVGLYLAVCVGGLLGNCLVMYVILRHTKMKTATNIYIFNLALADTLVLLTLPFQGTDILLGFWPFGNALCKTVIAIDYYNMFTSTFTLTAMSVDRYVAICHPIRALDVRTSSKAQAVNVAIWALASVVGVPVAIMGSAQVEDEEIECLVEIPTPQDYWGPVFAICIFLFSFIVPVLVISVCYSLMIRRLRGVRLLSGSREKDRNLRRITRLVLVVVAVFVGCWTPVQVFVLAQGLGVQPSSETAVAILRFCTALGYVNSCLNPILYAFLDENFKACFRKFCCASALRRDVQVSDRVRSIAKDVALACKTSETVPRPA
Procedure, shortened: as §1

Human κ-Opioid (KOP) = biological target: T9, Human κ-Opioid (KOP) (Homo sapiens, UniProt P41145); test: Radioligand binding, human κ-opioid (KOP) membranes, filtration, [3H]-Diprenorphine; details: compound at 10 μM; [3H]-Diprenorphine
T9 construct: purchased Perkin Elmer Biosignal
T9 sequence (P41145 whole entry): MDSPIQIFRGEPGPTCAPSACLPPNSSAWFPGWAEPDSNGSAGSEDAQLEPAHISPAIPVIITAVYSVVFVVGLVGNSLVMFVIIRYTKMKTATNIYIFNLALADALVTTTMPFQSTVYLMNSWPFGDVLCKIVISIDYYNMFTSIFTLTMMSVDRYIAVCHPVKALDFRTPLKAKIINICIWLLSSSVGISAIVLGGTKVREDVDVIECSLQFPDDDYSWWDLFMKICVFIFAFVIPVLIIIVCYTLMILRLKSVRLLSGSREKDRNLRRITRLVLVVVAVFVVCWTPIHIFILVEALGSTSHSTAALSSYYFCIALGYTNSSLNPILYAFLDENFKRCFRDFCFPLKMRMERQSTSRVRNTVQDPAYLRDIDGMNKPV
Procedure, shortened: (§2)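 Percent inhibition of radioligand binding measured on recombinant human membranes: NK1 with [125I]-Substance P, KOP with [3H]-Diprenorphine. Incubation 1 h at room temperature, then harvest onto 0.3% PEI-soaked filters, cold Tris-HCl pH 7.4 washes and scintillation counting; non-specific binding from reference ligand wells.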

Human neurokinin (NK1) = biological target: T10, Human neurokinin (NK1) (Homo sapiens, UniProt P25103); test: Radioligand binding, human neurokinin NK1 membranes, filtration, [125I]-Substance P; details: compound at 10 μM, [125I]-Substance P
T10 construct: purchased Perkin Elmer Biosignal
T10 sequence (P25103 whole entry): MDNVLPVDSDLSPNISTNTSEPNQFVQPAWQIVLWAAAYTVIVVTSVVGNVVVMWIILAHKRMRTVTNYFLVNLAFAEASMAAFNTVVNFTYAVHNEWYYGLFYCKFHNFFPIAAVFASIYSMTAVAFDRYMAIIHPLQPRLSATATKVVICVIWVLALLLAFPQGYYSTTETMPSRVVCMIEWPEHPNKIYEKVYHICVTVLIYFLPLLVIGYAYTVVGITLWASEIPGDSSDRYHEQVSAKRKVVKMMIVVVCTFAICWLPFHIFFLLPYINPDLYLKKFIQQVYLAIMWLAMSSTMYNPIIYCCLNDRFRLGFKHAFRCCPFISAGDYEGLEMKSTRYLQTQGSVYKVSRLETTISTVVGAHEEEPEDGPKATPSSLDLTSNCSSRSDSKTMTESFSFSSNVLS
Procedure, shortened: as §2

Human δ-opioid (DOP) = biological target: T11, Human δ-opioid (DOP) (Homo sapiens, UniProt P41143); test: Radioligand binding, human δ-opioid (DOP) membranes, FlashPlate, [3H]-Bremazocine; details: compound at 10 μM; [3H]-Bremazocine
T11 construct: purchased Perkin Elmer Biosignal
T11 sequence (P41143 whole entry): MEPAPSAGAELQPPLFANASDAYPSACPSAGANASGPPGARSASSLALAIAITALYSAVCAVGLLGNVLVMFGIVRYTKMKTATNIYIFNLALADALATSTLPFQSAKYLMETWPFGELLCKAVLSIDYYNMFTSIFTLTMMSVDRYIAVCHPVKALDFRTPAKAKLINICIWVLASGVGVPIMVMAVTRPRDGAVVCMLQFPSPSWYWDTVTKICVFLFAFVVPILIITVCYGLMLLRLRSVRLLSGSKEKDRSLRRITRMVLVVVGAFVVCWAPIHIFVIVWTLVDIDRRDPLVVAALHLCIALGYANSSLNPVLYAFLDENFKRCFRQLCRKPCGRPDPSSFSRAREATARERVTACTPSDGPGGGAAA
Procedure, shortened: as §1

T1 sequence (P32245 whole entry): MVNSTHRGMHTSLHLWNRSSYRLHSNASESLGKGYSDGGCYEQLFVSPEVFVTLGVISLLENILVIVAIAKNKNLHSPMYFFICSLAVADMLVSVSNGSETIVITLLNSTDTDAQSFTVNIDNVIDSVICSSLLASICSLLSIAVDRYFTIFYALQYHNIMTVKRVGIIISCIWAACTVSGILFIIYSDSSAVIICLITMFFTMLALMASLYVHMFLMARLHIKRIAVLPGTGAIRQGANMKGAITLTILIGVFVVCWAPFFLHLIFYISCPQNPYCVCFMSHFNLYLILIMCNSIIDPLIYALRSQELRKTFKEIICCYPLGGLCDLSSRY

| SMILES | A4: inhibition of radioligand binding, human melanocortin (MC4) (Human Melanocortin (MC4)) | A6: inhibition of radioligand binding, human melanin-concentrating hormone (MCH1) [1] | A7: inhibition of radioligand binding, human μ-opioid (MOP) (Human μ-opioid (MOP)) | A5: inhibition of radioligand binding, human melanocortin (MC5) (Human melanocortin (MC5)) | A11: inhibition of radioligand binding, mouse urotensin (mUR2) (Mouse urotensin (mUR2)) | A3: inhibition of radioligand binding, human melanocortin (MC3) (Human Melanocortin (MC3)) | A9: inhibition of radioligand binding, human neuropeptide Y (NPY-Y1) [2] | A10: inhibition of radioligand binding, human opioid (ORL1) (Human opioid (ORL1)) | A2: inhibition of radioligand binding, human κ-opioid (KOP) (Human κ-Opioid (KOP)) | A8: inhibition of radioligand binding, human neurokinin (NK1) (Human neurokinin (NK1)) | A1: inhibition of radioligand binding, human δ-opioid (DOP) (Human δ-opioid (DOP)) | A5: inhibition of radioligand binding, human melanocortin (MC5) (Human melanocortin (MC5); 10 µM) | A8: inhibition of radioligand binding, human neurokinin (NK1) (Human neurokinin (NK1); 10 µM) |
| --- | --- | --- | --- | --- | --- | --- | --- | --- | --- | --- | --- | --- | --- |
| COCC1OC(NC(=O)Cc2ccccc2)C(NC(=O)CCCN)C(OCc2ccc3ccccc3c2)C1O (stereo not shown) [compound 543] | − (“−” indicates less than 50% inhibition at 10 μM) | − (“−” indicates less than 50% inhibition at 10 μM) | − (“−” indicates less than 50% inhibition at 10 μM) | − (“−” indicates less than 50% inhibition at 10 μM) | − (“−” indicates less than 50% inhibition at 10 μM) | − (“−” indicates less than 50% inhibition at 10 μM) | − (“−” indicates less than 50% inhibition at 10 μM) | − (“−” indicates less than 50% inhibition at 10 μM) | − (“−” indicates less than 50% inhibition at 10 μM) | + (“+” indicates greater than 50% inhibition at 10 μM) | − (“−” indicates less than 50% inhibition at 10 μM) | – | – |
| NCCC(=O)NC1COC(COCc2ccc(-c3ccccc3)cc2)C(O)C1OCc1ccc(Cl)cc1 (stereo not shown) [compound 544] | − (“−” indicates less than 50% inhibition at 10 μM) | − (“−” indicates less than 50% inhibition at 10 μM) | − (“−” indicates less than 50% inhibition at 10 μM) | − (“−” indicates less than 50% inhibition at 10 μM) | − (“−” indicates less than 50% inhibition at 10 μM) | + (“+” indicates greater than 50% inhibition at 10 μM) | − (“−” indicates less than 50% inhibition at 10 μM) | − (“−” indicates less than 50% inhibition at 10 μM) | + (“+” indicates greater than 50% inhibition at 10 μM) | + (“+” indicates greater than 50% inhibition at 10 μM) | − (“−” indicates less than 50% inhibition at 10 μM) | – | – |
| COCC1OC(OCc2ccc3ccccc3c2)C(NC(=O)CCN)C(OCc2ccc3ccccc3c2)C1O (stereo not shown) [compound 545] | − (“−” indicates less than 50% inhibition at 10 μM) | − (“−” indicates less than 50% inhibition at 10 μM) | − (“−” indicates less than 50% inhibition at 10 μM) | – | − (“−” indicates less than 50% inhibition at 10 μM) | − (“−” indicates less than 50% inhibition at 10 μM) | − (“−” indicates less than 50% inhibition at 10 μM) | − (“−” indicates less than 50% inhibition at 10 μM) | − (“−” indicates less than 50% inhibition at 10 μM) | – | − (“−” indicates less than 50% inhibition at 10 μM) | − (“−” indicates less than 50% inhibition at 10 μM) | + (“+” indicates greater than 50% inhibition at 10 μM) |
| COCC1OC(OCc2ccc3ccccc3c2)C(NC(=O)CCN)C(OCc2ccc3ccccc3c2)C1O (stereo not shown) [compound 546] | − (“−” indicates less than 50% inhibition at 10 μM) | − (“−” indicates less than 50% inhibition at 10 μM) | − (“−” indicates less than 50% inhibition at 10 μM) | – | − (“−” indicates less than 50% inhibition at 10 μM) | − (“−” indicates less than 50% inhibition at 10 μM) | − (“−” indicates less than 50% inhibition at 10 μM) | − (“−” indicates less than 50% inhibition at 10 μM) | − (“−” indicates less than 50% inhibition at 10 μM) | – | − (“−” indicates less than 50% inhibition at 10 μM) | + (“+” indicates greater than 50% inhibition at 10 μM) | − (“−” indicates less than 50% inhibition at 10 μM) |
| COCC1OC(OCc2ccc3ccccc3c2)C(NC(=O)CCNC(=N)N)C(OCc2ccc3ccccc3c2)C1O (stereo not shown) [compound 547] | − (“−” indicates less than 50% inhibition at 10 μM) | + (“+” indicates greater than 50% inhibition at 10 μM) | − (“−” indicates less than 50% inhibition at 10 μM) | − (“−” indicates less than 50% inhibition at 10 μM) | − (“−” indicates less than 50% inhibition at 10 μM) | − (“−” indicates less than 50% inhibition at 10 μM) | − (“−” indicates less than 50% inhibition at 10 μM) | − (“−” indicates less than 50% inhibition at 10 μM) | − (“−” indicates less than 50% inhibition at 10 μM) | + (“+” indicates greater than 50% inhibition at 10 μM) | − (“−” indicates less than 50% inhibition at 10 μM) | – | – |
